Like-named read-outs stand apart in the source and are kept apart here.
Assays:
[1] = tested on: cell lines with mutant/deleted p53; conditions: mean of 41-42 cell lines with mutant/deleted p53; read-out: Mutant p53 Mean LC50; cited from earlier work
[2] = tested on: cell lines with Wild type p53; conditions: cited from earlier work
ubiquitin isopeptidases [3] = assay: In vivo isopeptidase activity after treatment of RKO cells, Ub-PEST; format: cell-based, human; conditions: 6 h
Procedure: Isopeptidase Assay. It was hypothesized that the punaglandins would inhibit ubiquitin-isopeptidase activity of the proteasome pathway as does the prostaglandin, Δ^12-PGJ2 (1), but with greater potency because of the chlorinated C-10. To validate this theory, cellular isopeptidase enzymatic activity was measured in vitro after treatment with individual punaglandins, PNG 2 (6), PNG 3 (7), and Z-PNG 4 (9) and in vivo after individual treatment with PNG 4 (8) and PNG 6 (10). This activity was determined utilizing the simple isopeptidase substrate, ubiquitin-PEST (Ub-PEST), a full/length ubiquitin (Ub) molecule fused with an 18-amino acid C-terminal peptide extension that most isopeptidases use as a substrate. The polypeptide extension contains regions rich in Pro (P), Glu (E), Ser (S), and Thr (T) residues called PEST motifs that are responsible for rapid degradation of these and other unstable proteins. Ub isopeptidases specifically cleave this peptide extension, yielding free, full-length Ub. Both the fused Ub-PEST (10.5 kDa) and the cleaved, free Ub (8.5 kDa) can be observed via immunochemical detection.
In vivo Isopeptidase Activity. To investigate whether punaglandins can inhibit isopeptidase activity in vivo, isopeptidase activity was analyzed after punaglandin treatment of RKO cells. PNG 4 (8) and PNG 6 (10) were selected for in vivo investigation because they differ only in enone functionality, where (8) is a dienone and (10) an enone. RKO cells were incubated with 1 μM, 4 μM, or 7 μM of PNG 4 (8) and PNG 6 (10). […] As a positive control, cells were treated with a known isopeptidase inhibitor, shikoccin (SK). After 6 h drug treatment, cells were lysed and protein concentration adjusted to 0.3 mg/mL per sample. Each sample was subsequently incubated with 50 μg/mL of Ub-PEST. The reaction was terminated after 20 min and the respective amounts of Ub-PEST (10 kDa) and free Ub product (8.5 kDa) were determined by SDS-PAGE fractionation.

HCT 116 −/− cells [4] = assay: MTT cell viability assay, HCT 116 p53 −/− cells; conditions: read-out: Cytotoxic Potency (EC50) HCT −/−; 48 h, MTT
Procedure: (§1) Cell viability was measured with MTT reagent as described in materials and methods.
(§2) Cell viability was detected by the MTT assay. Briefly, 1×10^5 cells were incubated per well of a sterile, 96-well assay plate with 0-60 μM of test compounds for 48 hours. MTT reagent was added to each well, final concentration of 0.5 mg/mL, and incubated for an additional 3 hours. The media was aspirated and remaining MTT reagent from each well and added 100 μL of HCl:isopropanol (1:24). The absorbance of each sample was measured at 405 nm.

ubiquitin isopeptidases [5] = assay: Reversibility of isopeptidase inhibition in cell lysates, z-LRGG-AMC, dialysis; format: biochemical; conditions: 100 μM
Procedure: FIG. 5 Reversibility of isopeptidase inhibition by Δ12-PGJ2. Cell lysates (0.5 mg/mL) were treated with DMSO vehicle or 100 μM .12-PGJ2 for 1 hour,25° C. The treated lysates were divided into two aliquots. One aliquot was immediately analyzed for isopeptidase activity by incubating with z-LRGG-AMC as previously described (Pre-Dialysis). The second aliquot was dialyzed by washing with 3 volumes of assay buffer on a centricon YM-30 column, followed by analysis for isopeptidase activity by incubating with z-LRGG-AMC (Post-Dialysis).
Δ-12-PGJ2 irreversibility was determined. Cell lysates were incubated with vehicle or 100 μM test compound and isopeptidase activity was measured fluorimetrically. 500 μl portion of each sample were dialyzed through a Centricon filter with a molecular weight cut-off of […]. After washing with 3 volumes of assay buffer, isopeptidase activity was measured in the […].

ubiquitin isopeptidases [6] = assay: In vitro isopeptidase activity in HCT 116 lysates, Ub-PEST; format: biochemical, human; conditions: HCT 116 lysates, 45 min
HCT 116 +/+ cells = conditions: Mullally et al., University of Utah, 2003; read-out: EC50 in competent HCT 116 cells; cited from earlier work
HCT 116 −/− cells [7] = tested on: HCT 116 −/− cells
Procedure: as §1, §2

ubiquitin isopeptidases [8] = conditions: cells treated for 12 h; cited from earlier work

Structure (SMILES)	CC50 [1] [µM]	p53 dependence in NCI 60 cell line cancer screening data ([2]; analysis according to O'Connor et al., 1997)	LC50 ([2]; mean of 18 cell lines with wild type p53) [µM]	effect on Ub-PEST degradation, control substances (ubiquitin isopeptidases [3])	EC50 (HCT 116 −/− cells [4]) [µM]	isopeptidase inhibition in treated cell lysates, pre-dialysis (ubiquitin isopeptidases [5]; 1 hour, 25° C.)	reversibility of isopeptidase inhibition, post-dialysis (ubiquitin isopeptidases [5]; dialysis with 3 volumes of assay buffer)	concentration at which inhibition of Ub-PEST degradation is initially observed (ubiquitin isopeptidases [6]) [µM]	concentration of complete (total) inhibition of Ub-PEST degradation (ubiquitin isopeptidases [6]) [µM]	EC50 (HCT 116 +/+ cells) [µM]	EC50 (HCT 116 −/− cells [7]) [µM]	concentration showing inhibition of Ub-PEST degradation, previous in vivo studies (ubiquitin isopeptidases [8]) [µM]
C=C1C(=O)C2=CC1CCC(=O)C1(C)CCC(OC(C)=O)C(C)(C)C1CC2O (stereo not drawn) [NSC-302979, shikoccin]	66	act independently of p53	54	expected inhibition of Ub-PEST degradation	3.2 ± 0.2							
CCCCC[C@H](O)C/C=C1/C(=O)C=C[C@@H]1C/C=C\CCCC(=O)O [Δ12-PGJ2, Δ12-prostaglandin J2]						inhibited isopeptidase activity in treated cell lysates	could not be reversed by dialysis	60	200	3.6	4.1 ± 0.1	60

Reference: patent US20060106099A1, “Novel inhibitors of ubiquitin isopeptidases” (priority 2002, published 2006)
